Tests used:
RXRα [1] = molecular target: T1, RXRα (Homo sapiens, UniProt P19793); experiment: ligand binding assay, RXRα
T1 sequence (P19793 1-462): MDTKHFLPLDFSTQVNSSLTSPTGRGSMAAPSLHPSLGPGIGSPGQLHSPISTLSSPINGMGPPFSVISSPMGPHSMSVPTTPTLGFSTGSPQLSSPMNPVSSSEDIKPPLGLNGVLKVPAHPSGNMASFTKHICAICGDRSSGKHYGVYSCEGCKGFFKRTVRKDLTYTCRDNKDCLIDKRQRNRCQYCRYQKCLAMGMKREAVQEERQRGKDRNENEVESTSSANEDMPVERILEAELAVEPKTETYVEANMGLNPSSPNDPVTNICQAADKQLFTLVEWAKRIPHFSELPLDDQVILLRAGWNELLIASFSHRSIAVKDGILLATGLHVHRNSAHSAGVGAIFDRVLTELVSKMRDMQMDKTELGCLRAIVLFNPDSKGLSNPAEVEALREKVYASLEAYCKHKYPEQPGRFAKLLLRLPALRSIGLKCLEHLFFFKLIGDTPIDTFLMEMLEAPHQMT
Text: The results of the ligand binding assay are expressed in Ki numbers.

RXRα [2] = molecular target: T1, RXRα; experiment: holoreceptor transactivation assay, RXRα; conditions: for RXR α transactivation efficacy as a percentage compared to the standard compound: value in parentheses, relative to standard compound of U.S. Pat. No. 6,114,533
Text: The results obtained in this assay are expressed in EC50 numbers, as they are also in the chimeric receptor transactivation assay.
(§1) Efficacy in a transactivation assay is expressed as a percentage of the maximum potency attained by the compound compared to a standard which, in this case, is the compound named (2E, 4E, 1′S, 2′S)-3-methyl-5-[2′-methyl-2′-(5,5,8,8-tetramethyl-5,6,7,8-tetrahydro-naphthalen-2-yl)-cyclopropyl]-penta-2,4-dienoic acid.
(§2) Particularly, the transactivation data pertaining to activation of the RAR receptors were obtained in the chimeric assay, and the transactivation data pertaining to the activation of RXR receptors were obtained in the holoreceptor assay.

RARβ = molecular target: T2, RARβ (Homo sapiens, UniProt P10826); experiment: chimeric receptor transactivation assay, RARβ; conditions: for RAR β transactivation efficacy as a percentage compared to the standard compound: value in parentheses, relative to standard compound of U.S. Pat. No. 6,114,533
T2 sequence (P10826 183-417 limits assumed): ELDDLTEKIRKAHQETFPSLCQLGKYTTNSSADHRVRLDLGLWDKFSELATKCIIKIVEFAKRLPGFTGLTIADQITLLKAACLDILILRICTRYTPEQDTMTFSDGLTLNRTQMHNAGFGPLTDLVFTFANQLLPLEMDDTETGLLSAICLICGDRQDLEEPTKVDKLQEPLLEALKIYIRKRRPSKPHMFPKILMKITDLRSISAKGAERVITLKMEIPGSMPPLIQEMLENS
Text: as §1, §2

RARγ = molecular target: T3, RARγ (Homo sapiens, UniProt P13631); experiment: chimeric receptor transactivation assay, RARγ
T3 sequence (P13631 185-419 limits assumed): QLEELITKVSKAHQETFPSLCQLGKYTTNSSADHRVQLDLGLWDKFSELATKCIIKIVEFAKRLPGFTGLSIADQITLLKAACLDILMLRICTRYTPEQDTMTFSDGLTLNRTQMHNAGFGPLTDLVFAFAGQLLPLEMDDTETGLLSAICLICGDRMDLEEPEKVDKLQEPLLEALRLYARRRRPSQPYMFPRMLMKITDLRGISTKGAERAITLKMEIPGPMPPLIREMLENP
Text: as §1, §2

[3] = test system: Female diabetic db/db mice; experiment: serum glucose, triglyceride and thyroxine levels in female db/db mice
Experimental: An assay described below tests the effect of compounds of the invention on serum glucose, tryglyceride and thyroxine levels in female 9-10 weeks old db/db mice.
Female diabetic db/db (9-10 weeks old) mice were maintained on standard laboratory food and treated by oral gavage with vehicle (corn oil), standard compound (2E, 4E, 1′S, 2′S)-3-methyl-5-[2′-methyl-2′-(5,5,8,8-tetramethyl-5,6,7,8-tetrahydro-naphthalen-2-yl)-cyclopropyl]-penta-2,4-dienoic acid (5 mg/kg) or the test compound (5-100 mg/kg, as described in Table 2) daily for seven days at 8:00 AM. Blood samples (70 μ) were taken by orbital bleeding at 11:00 AM on day 0 (pre-treatment), day 3, and day 6. On day 7, a blood sample (700 μt) was taken at 11:00 AM and the animals were sacrificed. Glucose, triglyceride and thyroxine (T4) levels were determined on a Boehringer Manheim Hatachi Clinical Chemistry Analyzer using standard protocols provided by the manufacturer and reagents that were supplied in commercially available kits (glucose and T4: Boehringer Manheim; triglycerides: Roche Diagnostics).

[4] = Day 0 (pre-treatment), female db/db mice, group later given standard compound 5 mg/kg or Compound 6 50 mg/kg by oral gavage
[5] = Day 3, 3 h, oral gavage daily, standard compound 5 mg/kg, Compound 6 50 mg/kg

Compound | Ki (RXRα [1]) | EC50 (RXRα [2]) | RXR α transactivation efficacy as a percentage compared to the standard compound (RXRα [2]) | EC50 (RARβ) | RAR β transactivation efficacy as a percentage compared to the standard compound (RARβ) | EC50 (RARγ) | RAR γ transactivation efficacy as a percentage compared to the standard compound (RARγ; value in parentheses, relative to standard compound of U.S. Pat. No. 6,114,533) | Glucose Day 0 [3, 4] | Triglycerides Day 0 [3, 4] | Glucose Day 3, 3 h [3, 5] | Triglycerides Day 3, 3 h [3, 5] | Glucose Day 6, 3 h ([3]; Day 6, 3 h, oral gavage daily, standard compound 5 mg/kg, Compound 6 50 mg/kg)
CC(/C=C/C=C(c1cc2c(cc1O)C(C)(C)CCC2(C)C)C(F)(F)F)=C\C(=O)O (stereo in doubt) [Compound 4, (2E,4E,6Z)-8,8,8-Trifluoro-7-(3-hydroxy-5,5,8,8-tetramethyl-5,6,7,8-tetrahydro-naphthalen-2-yl)-3-methyl-octa-2,4,6-trienoic acid] | 471 nM | 9 nM | 65% | > 500 nM | ~30% | > 500 nM | ~30% |  |  |  |  | 
CCOc1cc2c(cc1\C(=C/C=C/C(C)=C/C(=O)O)C(F)(F)F)C(C)(C)CCC2(C)C [Compound 6, (2E,4E,6Z)-7-(3-Ethoxy-5,5,8,8-tetramethyl-5,6,7 8-tetrahydro-naphthalen-2-yl)-8,8,8-trifluoro-3-methyl-octa-2,4,6-trienoic acid] | 14 nM | 10 nM | 17% | 67 nM | 15% |  |  | 561 ± 159 mg/dL | 350 ± 69 mg/dL | 442 ± 164 mg/dL | 240 ± 192 mg/dL | 483 ± 175 mg/dL
